Test results reported in US20150374705A1, “Substances for treatment or relief of pain” (Shanghai Institues for Biological Sciences, priority 2012, published 2015).

Assays:
Assay type in all cases: in vivo
[1] = test system: SNI model rats (neuropathic pain); experiment: Spared nerve injury (SNI) model, neuropathic pain, mechanical pain threshold; conditions: rat, intrathecal injection 7 days after SNI, threshold at 9-17 days
Description: Male SD rats (200-250 g) were used, 6 per group in the cage. All the animals were placed under 12 hours light/cycle (i.e. 12 hours light and 12 hours dark in each day), free to food and water. All the experiments were conducted under the condition that the observers were blind to pharmaceutical treatment.
Spared nerve injury model (SNI): 10% chloral hydrate was injected intraperitoneally to anesthetize rats. […] The muscle was longitudinally separated to expose the core of sciatic nerve and the branching below: tibial nerve, common peroneal nerve and sural nerve. The tibial nerve and common peroneal nerve were ligatured and cut and small sural nerve was retained, meanwhile preventing any injury. The muscle and skin were sutured layer by layer, and then antibiotics were injected intraperitoneally for antibacterial purpose. For detailed methods, please refer to Decosterd I and Woolf C J. Spared nerve injury: an animal model of persistent peripheral neuropathic pain. 2000 August; Pain 87(2):149-58.
Method for detecting mechanical hyperalgesia in rats: firstly CFA solution was injected in the thenar of rats. After 24 hours, mechanical hyperalgesia quantitative detection was adopted to measure the paw withdrawal of rats to normal and harmless mechanical stimulation. Evaluation was conducted according to reference (Chaplan S R et al., Quantitative assessment of tactile allodynia in the rat paw. J Neurosci Methods. 1994 July; 53(1):55-63). In this method, the von Frey fibers with different bending force (equivalent to the range of 1-50 g force) were used to apply harmless mechanical stimulation. The rats were placed in organic glass box with metal mesh plate, and the von Frey fibers were applied on the surface of leg thenar. The von Frey fibers were applied vertically to the surface of thenar to generate the force that will trigger slight resistance to the leg. 2-3 seconds were maintained for every leg thenar. If the leg withdrew suddenly, positive records were recorded. The threshold was the mean of the weight that caused 50% paw withdrawal response (5-6 paw withdrawal/10 stimulations) in overall 10 stimulations.
Compounds MRK 016, C2, C3, C4, C5, C6, C7, C8 or α5IA (A5I) were dissolved in 70% PGE400 (PGE400:water=70:30 in volume). For injection dose, MRK016 was 2 mg/kg body weight; A5I was 3 mg/kg body weight; C2, C3, C4, C5, C6, C7 and C8 were 3 mg/kg body weight.
MRK016-M3 was dissolved in 90% PGE400 (PGE400:water=90:10 in volume). The doses were 10 mg/kg, 3 mg/kg, 1 mg/kg and 0.3 mg/kg, respectively for oral administration.
The method for behavioral data statistics was unpaired t-test. *, p<0.05, represents significant difference.

[2] = test system: CFA induced inflammatory pain model rats (heat pain); experiment: CFA induced inflammatory pain model, heat pain threshold; conditions: rat, spinal injection the day before CFA, measured every day
[3] = test system: CFA induced inflammatory pain model rats (mechanical pain); experiment: CFA induced inflammatory pain model, mechanical pain threshold; conditions: rat, spinal injection the day before CFA, measured every day
[4] = test system: α5 subunit protein of GABAA receptor in dorsal root ganglion; experiment: Knock-down of α5 subunit of GABAA receptor in dorsal root ganglion, western blot; conditions: rat, intrathecal injection
Description: In western blot experiment, obtained dorsal root ganglion was lysed in RIPA (50 mM Tris (pH7.4), 150 mM NaCl, 1% Triton X-100, 1% sodium deoxycholate, 0.1% SDS as well as sodium orthovanadate, sodium fluoride, EDTA and leupeptin. The proteins were boiled at 100° C. for 5 minutes for denaturation. 10-20 μl samples were added into the prepared channels after the protein samples became cool. Then, electrophoresis was conducted at 60 V for 30 minutes. After the samples passed the boundary between the upper layer gel and the lower layer gel, the voltage was adjusted to 90 V until bromophenol blue reached the lower edge of the lower layer gel. After electrophoresis, the SDS gel that contained target bands was cut for transferring. Through electric transferring, the negative charged proteins were transferred to positive charged PVDF membrane. The blocking buffer that contained 5% skim milk powder was used to block the membrane for 1 hour to reduce unspecific binding. Then, the PVDF membrane was immersed in the blocking buffer containing primary antibody and incubated overnight at 4° C. or 1-2 hours at room temperature. […] Finally, PVDF membrane was incubated with the substrate of horse radish peroxidase ECL-PLUS for 5 minutes in dark to produce fluorescence signal. Then X-ray film was used to capture the fluorescence signal on PVDF membrane. […]

Q: What does the source list for “siRNA specific to the mRNA of α5-GABAA receptor: siRNA, sequence 5′GGUGCGAACAGACAUCUAUTT 3′ (chemistry not given here)”?
A: Pain threshold in SNI model after siRNA [1]: significantly elevated pain threshold; Heat pain threshold after siRNA [2]: inhibit the inflammatory pain efficiently; Mechanical pain threshold after siRNA [3]: inhibit the inflammatory pain efficiently; Expression of the α5 subunit of GABAA receptor in dorsal root ganglion [4]: significantly knocked-out the expression
